The values below come from ChEMBL document CHEMBL3991601, “The target landscape of clinical kinase drugs” (Science, 2017).

The target of one assay is Actin-related protein 2 (Homo sapiens, UniProt P61160).
In assay [1] the target is Tyrosine-protein kinase BTK (Homo sapiens, UniProt Q06187).
Assay [2] concerns the target Calcium/calmodulin-dependent protein kinase kinase 2 (Homo sapiens, UniProt Q96RR4).
For assay [3], the target named is Serine/threonine-protein kinase MRCK gamma (Homo sapiens, UniProt Q6DT37).
Assay [4] concerns the target Casein kinase II subunit alpha' (Homo sapiens, UniProt P19784).
The target of assay [5] is Tyrosine-protein kinase Lyn (Homo sapiens, UniProt P07948).
Tyrosine-protein kinase Lyn, sequence (P07948 whole entry): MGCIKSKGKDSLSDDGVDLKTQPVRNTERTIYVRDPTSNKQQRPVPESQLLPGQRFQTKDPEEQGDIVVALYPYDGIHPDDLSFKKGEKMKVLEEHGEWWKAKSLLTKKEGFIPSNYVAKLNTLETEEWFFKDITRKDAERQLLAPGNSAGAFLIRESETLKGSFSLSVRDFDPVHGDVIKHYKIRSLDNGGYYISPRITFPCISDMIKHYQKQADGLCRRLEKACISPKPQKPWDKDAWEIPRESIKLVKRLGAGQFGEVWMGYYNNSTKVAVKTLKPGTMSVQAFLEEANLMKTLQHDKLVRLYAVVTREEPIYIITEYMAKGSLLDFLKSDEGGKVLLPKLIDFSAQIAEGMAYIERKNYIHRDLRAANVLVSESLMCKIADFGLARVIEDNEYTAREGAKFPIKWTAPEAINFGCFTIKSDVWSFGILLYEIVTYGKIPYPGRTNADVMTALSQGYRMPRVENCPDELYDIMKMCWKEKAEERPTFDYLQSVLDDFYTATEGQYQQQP
The target of assay [6] is Myosin light chain kinase, smooth muscle (Homo sapiens, UniProt Q15746).
In assay [7] the target is T1, Serine/threonine-protein kinase Nek9 (Homo sapiens, UniProt Q8TD19).
T1 sequence (Q8TD19 whole entry): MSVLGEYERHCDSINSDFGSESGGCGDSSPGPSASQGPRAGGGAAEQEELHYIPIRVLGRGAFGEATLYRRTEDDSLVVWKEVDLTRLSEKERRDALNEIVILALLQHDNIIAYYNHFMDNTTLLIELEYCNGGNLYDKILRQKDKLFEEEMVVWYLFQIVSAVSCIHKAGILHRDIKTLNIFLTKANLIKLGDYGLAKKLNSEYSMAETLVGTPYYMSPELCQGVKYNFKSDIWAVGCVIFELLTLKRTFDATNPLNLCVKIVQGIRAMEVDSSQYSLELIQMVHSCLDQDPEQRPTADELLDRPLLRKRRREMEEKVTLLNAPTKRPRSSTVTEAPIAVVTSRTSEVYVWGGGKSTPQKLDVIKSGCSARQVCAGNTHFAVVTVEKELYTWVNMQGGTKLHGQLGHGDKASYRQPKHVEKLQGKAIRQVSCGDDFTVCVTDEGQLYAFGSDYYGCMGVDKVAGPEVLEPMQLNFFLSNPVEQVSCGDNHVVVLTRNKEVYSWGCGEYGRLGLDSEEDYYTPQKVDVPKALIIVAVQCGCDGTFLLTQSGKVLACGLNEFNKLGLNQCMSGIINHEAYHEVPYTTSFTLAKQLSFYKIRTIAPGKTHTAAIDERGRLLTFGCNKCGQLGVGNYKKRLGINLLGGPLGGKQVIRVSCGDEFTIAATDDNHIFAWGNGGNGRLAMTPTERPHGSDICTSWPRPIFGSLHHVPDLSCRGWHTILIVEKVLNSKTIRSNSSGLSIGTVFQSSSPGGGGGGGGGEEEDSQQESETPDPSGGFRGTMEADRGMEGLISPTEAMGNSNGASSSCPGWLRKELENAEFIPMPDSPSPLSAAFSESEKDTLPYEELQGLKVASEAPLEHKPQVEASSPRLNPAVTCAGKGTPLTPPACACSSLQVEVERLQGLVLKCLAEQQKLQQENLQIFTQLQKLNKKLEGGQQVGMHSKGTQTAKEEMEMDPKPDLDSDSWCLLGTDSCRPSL

The target of assay [8] is Serine/threonine-protein kinase pim-1 (Homo sapiens, UniProt P11309).
Serine/threonine-protein kinase pim-1, sequence (P11309 whole entry): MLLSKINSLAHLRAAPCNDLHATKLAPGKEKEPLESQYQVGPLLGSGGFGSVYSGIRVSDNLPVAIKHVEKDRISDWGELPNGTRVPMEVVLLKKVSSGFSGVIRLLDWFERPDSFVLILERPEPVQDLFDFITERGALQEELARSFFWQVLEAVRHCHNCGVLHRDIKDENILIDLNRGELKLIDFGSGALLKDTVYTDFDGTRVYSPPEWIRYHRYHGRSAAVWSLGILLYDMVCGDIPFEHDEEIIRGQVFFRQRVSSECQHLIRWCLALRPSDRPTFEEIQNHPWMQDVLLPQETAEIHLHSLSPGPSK
In assay [9] the target is Serine/threonine-protein kinase N1 (Homo sapiens, UniProt Q16512).
Serine/threonine-protein kinase N1, sequence (Q16512 whole entry): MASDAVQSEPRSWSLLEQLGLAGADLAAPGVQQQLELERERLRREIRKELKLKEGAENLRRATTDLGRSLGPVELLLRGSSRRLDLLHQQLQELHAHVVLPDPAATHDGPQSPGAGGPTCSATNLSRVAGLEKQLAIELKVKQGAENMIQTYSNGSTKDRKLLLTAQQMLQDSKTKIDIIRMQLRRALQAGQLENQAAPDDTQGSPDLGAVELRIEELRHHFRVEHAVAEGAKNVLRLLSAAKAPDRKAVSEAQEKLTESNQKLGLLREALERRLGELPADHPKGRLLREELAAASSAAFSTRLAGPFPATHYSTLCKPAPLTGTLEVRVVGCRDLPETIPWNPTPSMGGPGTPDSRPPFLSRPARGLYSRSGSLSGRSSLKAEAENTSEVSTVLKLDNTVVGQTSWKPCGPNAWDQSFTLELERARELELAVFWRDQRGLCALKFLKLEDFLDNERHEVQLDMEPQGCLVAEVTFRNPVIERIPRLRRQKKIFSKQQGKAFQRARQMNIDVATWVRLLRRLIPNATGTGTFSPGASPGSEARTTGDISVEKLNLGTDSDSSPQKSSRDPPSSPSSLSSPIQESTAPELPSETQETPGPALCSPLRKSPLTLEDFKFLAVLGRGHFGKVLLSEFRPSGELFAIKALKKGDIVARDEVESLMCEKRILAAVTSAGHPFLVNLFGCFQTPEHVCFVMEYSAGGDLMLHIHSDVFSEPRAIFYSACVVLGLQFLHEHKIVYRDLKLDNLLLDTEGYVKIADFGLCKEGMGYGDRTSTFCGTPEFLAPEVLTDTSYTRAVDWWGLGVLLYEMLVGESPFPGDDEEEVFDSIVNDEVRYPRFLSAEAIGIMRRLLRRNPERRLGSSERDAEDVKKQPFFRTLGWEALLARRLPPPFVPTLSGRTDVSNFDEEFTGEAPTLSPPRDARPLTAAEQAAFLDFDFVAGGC
In assay [10] the target is T2, Serine/threonine-protein kinase D3 (Homo sapiens, UniProt O94806).
T2 sequence (O94806 whole entry): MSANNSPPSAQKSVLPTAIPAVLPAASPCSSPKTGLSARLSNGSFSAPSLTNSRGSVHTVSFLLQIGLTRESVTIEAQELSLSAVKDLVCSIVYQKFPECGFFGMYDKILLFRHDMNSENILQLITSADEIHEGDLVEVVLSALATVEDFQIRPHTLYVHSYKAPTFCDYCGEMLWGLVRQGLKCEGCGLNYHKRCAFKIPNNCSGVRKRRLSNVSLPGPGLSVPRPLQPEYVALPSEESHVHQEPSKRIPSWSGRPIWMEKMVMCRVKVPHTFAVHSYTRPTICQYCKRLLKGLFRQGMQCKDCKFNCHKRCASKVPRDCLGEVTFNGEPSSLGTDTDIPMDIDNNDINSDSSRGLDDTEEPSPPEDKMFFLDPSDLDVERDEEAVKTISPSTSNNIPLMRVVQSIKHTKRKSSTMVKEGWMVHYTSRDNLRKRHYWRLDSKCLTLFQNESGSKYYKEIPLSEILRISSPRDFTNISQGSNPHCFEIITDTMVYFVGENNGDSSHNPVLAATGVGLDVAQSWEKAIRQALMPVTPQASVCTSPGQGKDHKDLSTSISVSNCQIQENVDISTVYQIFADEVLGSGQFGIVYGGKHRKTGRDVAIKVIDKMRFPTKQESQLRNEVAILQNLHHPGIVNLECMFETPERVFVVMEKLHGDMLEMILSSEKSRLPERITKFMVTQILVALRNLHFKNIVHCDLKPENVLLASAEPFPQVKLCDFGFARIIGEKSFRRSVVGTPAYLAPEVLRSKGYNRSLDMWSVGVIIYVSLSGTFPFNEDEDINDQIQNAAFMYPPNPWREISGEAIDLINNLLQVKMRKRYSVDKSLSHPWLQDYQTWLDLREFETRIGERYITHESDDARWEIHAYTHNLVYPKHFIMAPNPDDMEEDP

Assay [11] addresses Protein-tyrosine kinase 6 (Homo sapiens, UniProt Q13882).
Assay [12] addresses T3, Tyrosine--tRNA ligase, cytoplasmic (Homo sapiens, UniProt P54577).
T3 sequence (P54577 whole entry): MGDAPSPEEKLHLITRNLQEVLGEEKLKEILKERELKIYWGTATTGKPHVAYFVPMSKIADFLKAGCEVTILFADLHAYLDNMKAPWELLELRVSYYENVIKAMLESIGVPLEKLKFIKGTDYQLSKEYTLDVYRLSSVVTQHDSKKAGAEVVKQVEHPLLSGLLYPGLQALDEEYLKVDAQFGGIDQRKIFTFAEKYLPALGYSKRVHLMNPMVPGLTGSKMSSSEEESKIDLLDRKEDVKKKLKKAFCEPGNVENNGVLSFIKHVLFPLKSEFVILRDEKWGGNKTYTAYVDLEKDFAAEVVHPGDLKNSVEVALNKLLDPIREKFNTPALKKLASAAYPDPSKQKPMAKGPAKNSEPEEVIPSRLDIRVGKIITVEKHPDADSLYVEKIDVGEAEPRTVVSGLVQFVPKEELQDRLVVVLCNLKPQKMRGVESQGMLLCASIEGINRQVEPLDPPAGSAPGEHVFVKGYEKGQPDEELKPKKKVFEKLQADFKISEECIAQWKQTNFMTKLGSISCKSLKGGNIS

The source made the active and inactive calls. Rule as the data show it, for most assays here: actives have a measured Kd and inactives only a lower limit. A value given as a limit tells only on which side of the number the result lay.
Also: in the data inactive means no Kd found up to 30 µM.

Calcium/calmodulin-dependent protein kinase kinase 2, sequence (Q96RR4 whole entry): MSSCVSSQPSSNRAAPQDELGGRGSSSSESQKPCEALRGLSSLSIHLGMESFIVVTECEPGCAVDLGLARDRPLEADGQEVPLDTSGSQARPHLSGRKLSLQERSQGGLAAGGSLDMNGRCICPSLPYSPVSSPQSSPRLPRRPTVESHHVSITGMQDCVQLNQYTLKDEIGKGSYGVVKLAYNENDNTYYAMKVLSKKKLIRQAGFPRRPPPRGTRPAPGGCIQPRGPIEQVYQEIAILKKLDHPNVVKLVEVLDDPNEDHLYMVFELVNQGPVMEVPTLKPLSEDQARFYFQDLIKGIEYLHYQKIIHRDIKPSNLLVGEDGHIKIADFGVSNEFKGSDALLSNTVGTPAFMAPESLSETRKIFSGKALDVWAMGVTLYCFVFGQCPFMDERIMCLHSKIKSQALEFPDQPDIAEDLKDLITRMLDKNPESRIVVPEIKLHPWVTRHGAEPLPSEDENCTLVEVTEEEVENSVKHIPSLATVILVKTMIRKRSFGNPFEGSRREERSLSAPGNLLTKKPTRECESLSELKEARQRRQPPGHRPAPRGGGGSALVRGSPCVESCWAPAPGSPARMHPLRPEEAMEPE
Tyrosine-protein kinase BTK, sequence (Q06187 whole entry): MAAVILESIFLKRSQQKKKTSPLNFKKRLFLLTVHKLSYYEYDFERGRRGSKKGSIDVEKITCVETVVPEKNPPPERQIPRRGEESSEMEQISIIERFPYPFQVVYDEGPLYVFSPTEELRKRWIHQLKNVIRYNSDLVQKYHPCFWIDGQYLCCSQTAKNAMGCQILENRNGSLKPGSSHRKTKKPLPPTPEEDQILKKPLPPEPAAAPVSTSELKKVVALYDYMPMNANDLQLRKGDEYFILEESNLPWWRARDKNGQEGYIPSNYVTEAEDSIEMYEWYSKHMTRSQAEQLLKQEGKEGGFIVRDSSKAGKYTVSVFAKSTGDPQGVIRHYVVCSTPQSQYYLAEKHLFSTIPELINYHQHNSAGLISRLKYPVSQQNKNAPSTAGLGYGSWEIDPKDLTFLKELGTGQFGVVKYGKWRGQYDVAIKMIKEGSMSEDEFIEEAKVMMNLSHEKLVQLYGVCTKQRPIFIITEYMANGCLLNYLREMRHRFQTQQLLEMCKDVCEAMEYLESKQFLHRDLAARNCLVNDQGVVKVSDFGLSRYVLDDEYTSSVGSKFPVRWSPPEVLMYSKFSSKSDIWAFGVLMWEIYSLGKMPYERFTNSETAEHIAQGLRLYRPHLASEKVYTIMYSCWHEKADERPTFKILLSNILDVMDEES
Protein-tyrosine kinase 6, sequence (Q13882 whole entry): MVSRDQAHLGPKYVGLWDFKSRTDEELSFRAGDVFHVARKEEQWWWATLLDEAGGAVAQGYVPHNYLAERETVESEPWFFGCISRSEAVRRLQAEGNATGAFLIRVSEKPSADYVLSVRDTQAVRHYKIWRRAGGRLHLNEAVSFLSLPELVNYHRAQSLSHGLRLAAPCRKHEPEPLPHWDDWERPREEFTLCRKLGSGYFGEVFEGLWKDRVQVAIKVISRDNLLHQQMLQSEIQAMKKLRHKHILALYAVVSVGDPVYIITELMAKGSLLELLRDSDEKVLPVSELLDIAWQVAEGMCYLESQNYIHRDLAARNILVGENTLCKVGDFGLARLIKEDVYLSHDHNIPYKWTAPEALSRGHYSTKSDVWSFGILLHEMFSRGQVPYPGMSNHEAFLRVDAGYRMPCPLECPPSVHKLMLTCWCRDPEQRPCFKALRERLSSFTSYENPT
Casein kinase II subunit alpha', sequence (P19784 whole entry): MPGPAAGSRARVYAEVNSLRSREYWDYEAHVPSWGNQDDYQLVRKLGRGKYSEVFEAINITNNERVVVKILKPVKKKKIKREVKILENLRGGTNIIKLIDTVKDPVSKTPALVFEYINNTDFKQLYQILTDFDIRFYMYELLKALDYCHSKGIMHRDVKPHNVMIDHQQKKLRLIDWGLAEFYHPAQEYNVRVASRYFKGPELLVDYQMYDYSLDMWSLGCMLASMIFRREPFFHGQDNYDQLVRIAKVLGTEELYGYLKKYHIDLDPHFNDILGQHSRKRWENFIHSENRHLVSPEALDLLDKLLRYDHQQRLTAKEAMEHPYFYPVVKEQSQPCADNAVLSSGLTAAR

With `CNC(=O)c1cccc(-c2ccc3c(N4CCOC[C@@H]4C)nc(N4CCOC[C@@H]4C)nc3n2)c1` [VISTUSERTIB], the Kd (on Actin-related protein 2; in assay [1]; in assay [2]; in [3]; in assay [4]; in assay [5]) was > 30 µM (inactive) each time. Also, the Kd in assay [6], in assay [7], in [8], in assay [9], in [10] and in assay [11] was > 30 µM (inactive) throughout. For the same compound, the Kd in assay [12] is > 30 µM (inactive).

As for `O=C(NC[C@H](O)CO)c1ccncc1Nc1ccc(I)cc1F` [PIMASERTIB], the Kd (at Actin-related protein 2; in [1]; in assay [2]; in [3]; in assay [4]; in assay [5]) was > 30 µM (inactive) throughout. For the same compound, the Kd in assay [6], in assay [7], in assay [8], in [9], in assay [10] and in assay [11] was > 30 µM (inactive) each time. Also, in assay [12], the Kd was > 30 µM (inactive).

Regarding `O=C(NOC[C@H](O)CO)c1ccc(F)c(F)c1Nc1ccc(I)cc1F` [MIRDAMETINIB], the Kd (at Actin-related protein 2; in [1]; in assay [2]; in assay [3]; in [4]; in assay [5]) was > 30 µM (inactive) in each case. The Kd in [6], in [7], in [8], in assay [9], in [10] and in [11] was > 30 µM (inactive) in each case. Further, in assay [12], the Kd is > 30 µM (inactive).

Take `CC1(COc2ccc3c(c2)ncn3-c2ccc3cccc(N4CCC(N)CC4)c3n2)COC1` [CRENOLANIB]: the Kd at Actin-related protein 2 is > 30 µM (inactive); in [1] it was > 30 µM (inactive); in assay [2] it was 0.135 µM (active); in assay [3] it was > 30 µM (inactive); in assay [4], > 30 µM (inactive); in [5], > 30 µM (inactive). For the same compound, the Kd in [6] was > 30 µM (inactive); in assay [7] it was > 30 µM (inactive); in assay [8], > 30 µM (inactive); in [9], 0.165 µM (active); in assay [10] it was 14.8 µM (active); in assay [11], > 30 µM (inactive). Also, the Kd in assay [12] came out at 3.32 µM.

As to `COc1ccc2c(OCc3nnc4ccc(-c5ccccc5)nn34)ccnc2c1` [AMG-208], the Kd (at Actin-related protein 2; in assay [1]; in assay [2]; in [3]; in assay [4]; in [5]) was > 30 µM (inactive) each time. The Kd in [6], in assay [7], in assay [8], in assay [9], in assay [10] and in [11] was > 30 µM (inactive) in each case. Further, the Kd in assay [12] was > 30 µM (inactive).

Turning to `COc1ccc(-c2ccc3ncc4c(c3c2)n(-c2ccc(N3CCNCC3)c(C(F)(F)F)c2)c(=O)n4C)cn1` [BGT-226 FREE BASE], the Kd on Actin-related protein 2 is > 30 µM (inactive); in assay [1], > 30 µM (inactive); in assay [2], > 30 µM (inactive); in assay [3], > 30 µM (inactive); in assay [4], 8.49 µM (active); in [5], > 30 µM (inactive). Besides, the Kd in [6], in [7], in assay [8], in assay [9], in assay [10] and in [11] was > 30 µM (inactive) each time. For the same compound, the Kd in assay [12] is > 30 µM (inactive).
